In paper PMC9416741, “New-Generation Heterocyclic Bis-Pentamethinium Salts as Potential Cytostatic Drugs with Dual IL-6R and Mitochondria-Targeting Activity” (Pharmaceutics, 2022) one finds CC50, IC50 and Kd data, which are given here for three compounds.

Structures can show the parent of a compound that is named as a salt. Where two headings read alike, the source gives them in different places.

Data set [1] in a line: in vitro. More on the design: MTT metabolic activity assay, absorbance at 570 nm. To be noted: human, single replicate. How it is done: (§1) A colorimetric MTT cell metabolic activity assay was used to determine the cytotoxicity of Bis-PMSs 5 and 6. For these experiments, the HF-P4, BJ-hTERT, BLM, A-2058, U-2 OS, H1299 and BT-20 cells were cultured under standard conditions (37 °C, humidified atmosphere with 5% CO2 in air) in culture medium (DMEM, RPMI-1640, McCoy’s or EMEM with 10% FBS). Cells were plated in 96-well plates at a density of 5000 cells per well and grown for 24 h. The medium was then replaced with a medium containing Bis-PMSs 5 and 6, and cells were cultured for an additional 48 h. Afterwards, the medium was exchanged for medium with the MTT yellow tetrazolium dye (3-(4,5-dimethylthiazol-2-yl)-2,5-diphenyltetrazolium bromide, Sigma-Aldrich) and incubated for 2 h at 37 °C. After that, the yellow tetrazole dye was removed and DMSO was used to dissolve the reduced purple formazan formed in living cells. The absorbance of the converted dye was measured at a wavelength of 570 nm with the reference of 630 nm using a SpectraMax ABS Plus microplate reader (Molecular Devices). Experiments were performed in quadruplicate and repeated three times with similar results. In U251MG and GL261 cells, an assay assessing cell growth independent of mitochondrial respiration was used. Cells were plated in 96-well plates at a density of 5000 cells per well and grown for 24 h under standard conditions in culture medium (DMEM and RPMI-1640 with 10% FBS for U251MG and Gl261 cells, respectively). The medium was then replaced by that supplemented with Bis-PMSs 5 and 6. After 72 h of exposure, surviving cells were fixed and stained with [compound left out] blue (5 g/L in 50%, v/v, ethanol) and lysed with 1% sodium dodecyl sulfate, and the relative cell number was determined by reading absorbance at 630 nm using a 96-well plate reader (Sunrise; Tecan, Männedorf, Switzerland). The cell inhibitory concentration (IC) was calculated using the equation IC = (APMS well/mean Acontrol wells) × 100%. The half-maximal inhibitory concentration (IC50) was calculated from dose–response curves using GraphPad Prism software (v. 8.0.1, La Jolla, CA, USA). The selectivity indexes towards cancer cells were calculated as a ratio of the average of the IC50 values for HF-P4 and BJ-hTERT human fibroblasts and the IC50 value for the corresponding cancer cell line. For U251MG and Gl261 glioblastoma cells, the cytoselectivity was calculated against normal HF P4 fibroblast cells, which were analyzed using the same cytotoxicity assay. The cytotoxic activities of Bis-PMSs 5 and 6 were evaluated in normal (HF-P4 and BJ-hTERT fibroblasts) and malignant (BLM, A-2058, U-2 OS, H1299, BT-20) cells using a conventional MTT viability assay. For the measurements, cells were exposed to 0–10 µM of Bis-PMSs 5 and 6 under standard conditions in a complete cell culture medium and cell viability was measured after 48 h of treatment. In addition, cytotoxicity was tested in U251MG and Gl261 glioma cells using an assay that assesses cell growth independent of mitochondrial respiration (Figures S10 and S11 and Table S3).

For data set [2], the system named is HFP4. Nature of the data set: in vitro. More on the design: MTT metabolic activity assay, absorbance at 570 nm. The conditions noted are these: single replicate, 48 h. The protocol:
as §1

Data set [3] has as its system BJ-hTERT. Nature of the data set: in vitro. Details: MTT metabolic activity assay, absorbance at 570 nm. To be noted: single replicate, 48 h. The protocol: as §1
Data set [4] has as its system U2-OS. Kind of data set: cells. More on the design: MTT metabolic activity assay, absorbance at 570 nm. To be noted: Homo sapiens, U2OS, 48 h, single replicate. The protocol: as §1
In data set [5] the test system is A2058. Kind of data set: cells. Details: MTT metabolic activity assay, absorbance at 570 nm. To be noted: Homo sapiens, A2058, 48 h, single replicate. How it is done:
as §1

Data set [6] has as its system H1299. Kind of data set: cells. More on the design: MTT metabolic activity assay, absorbance at 570 nm. To be noted: Homo sapiens, NCI-H1299, 48 h, single replicate. The protocol:
as §1

Data set [7] deals with BT-20. Nature of the data set: cells. More on the design: MTT metabolic activity assay, absorbance at 570 nm. To be noted: Homo sapiens, BT-20, 48 h, single replicate. How it is done:
as §1

In data set [8] the test system is BLM. Nature of the data set: cells. Details: MTT metabolic activity assay, absorbance at 570 nm. To be noted: 48 h, single replicate. How it is done:
as §1

The target of data set [9] is T1, IL-6R (IL-6 receptor containing α and β subunits) (Homo sapiens, UniProt P08887+P40189).
T1 construct: gene IL6R; commercial IL-6R (Bio-Techne R&D Systems), said to contain alpha and beta subunits
T1 sequence (P08887 20-365 limits assumed): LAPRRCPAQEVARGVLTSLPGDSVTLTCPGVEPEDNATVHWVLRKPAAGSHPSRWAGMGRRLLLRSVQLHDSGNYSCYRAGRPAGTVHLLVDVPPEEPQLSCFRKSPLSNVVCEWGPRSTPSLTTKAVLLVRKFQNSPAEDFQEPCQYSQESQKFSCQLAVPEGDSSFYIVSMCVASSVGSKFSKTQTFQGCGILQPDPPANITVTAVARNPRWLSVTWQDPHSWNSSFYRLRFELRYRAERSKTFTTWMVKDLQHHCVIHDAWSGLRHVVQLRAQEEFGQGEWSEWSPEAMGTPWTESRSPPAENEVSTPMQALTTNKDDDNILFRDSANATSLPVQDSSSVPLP
T1 sequence (P40189 23-619 limits assumed): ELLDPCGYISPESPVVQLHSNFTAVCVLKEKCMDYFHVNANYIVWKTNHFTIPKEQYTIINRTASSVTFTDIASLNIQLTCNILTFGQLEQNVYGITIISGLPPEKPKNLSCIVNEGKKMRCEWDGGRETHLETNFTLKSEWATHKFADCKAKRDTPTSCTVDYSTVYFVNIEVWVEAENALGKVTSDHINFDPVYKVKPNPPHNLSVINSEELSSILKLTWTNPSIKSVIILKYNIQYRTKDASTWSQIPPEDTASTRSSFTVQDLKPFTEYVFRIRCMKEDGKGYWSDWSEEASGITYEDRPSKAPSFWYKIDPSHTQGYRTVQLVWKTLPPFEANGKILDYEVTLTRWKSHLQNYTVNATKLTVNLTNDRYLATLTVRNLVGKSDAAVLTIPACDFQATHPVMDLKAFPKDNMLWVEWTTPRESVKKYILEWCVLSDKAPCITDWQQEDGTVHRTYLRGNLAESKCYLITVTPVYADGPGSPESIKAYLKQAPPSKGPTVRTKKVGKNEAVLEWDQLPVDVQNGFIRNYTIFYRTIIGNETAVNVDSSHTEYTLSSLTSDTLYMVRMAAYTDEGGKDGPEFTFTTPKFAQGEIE
Nature of the data set: microscale thermophoresis (T-jump). Type of data set: binding. To be noted: read-out: dissociation constant.

Data set [10] has as its system U251. Kind of data set: cells. The conditions noted are these: Homo sapiens, U-251, 72 h, single replicate. More on the design: Cell growth by dye staining of fixed cells, absorbance at 630 nm, independent of mitochondrial respiration. How it is done:
as §1

For data set [11], the system named is Gl261. Kind of data set: cells. Details: Cell growth by dye staining of fixed cells, absorbance at 630 nm, independent of mitochondrial respiration. To be noted: Mus musculus, GL261, 72 h, single replicate. How it is done:
as §1

Data set [12] concerns the target IL-6R (Homo sapiens) (UniProt P08887). To be noted: cited from earlier work.
Setting [13] is: replicate 3, read-out: Bis-PMS 6 (IC50 / µM).
Setting [14] is: replicate 2, read-out: Bis-PMS 6 (IC50 / µM).
Setting [15] is: replicate 1, read-out: Bis-PMS 6 (IC50 / µM).
Setting [16] is: replicate 1, read-out: Bis-PMS 5 (IC50 / µM).
Setting [17] is: replicate 2, read-out: Bis-PMS 5 (IC50 / µM).
The mark [18] stands for this setting: replicate 3, read-out: Bis-PMS 5 (IC50 / µM).

Take `CN1C(=CC=C(C=CC2=[N+](C)c3ccccc3C2(C)C)c2cccc(C(C=CC3=[N+](C)c4ccccc4C3(C)C)=CC=C3N(C)c4ccccc4C3(C)C)c2)C(C)(C)c2ccccc21` [compound 6, m-bis-pentamethinium salt 6]: the CC50 at 48 h in [1] (hf-p4 cells, Bis-PMS 6 (IC50 / µM), replicate 1) was found to be 1.05 µM. Besides, the CC50 in [2] (setting [13]) is 1.95 µM; in data set [3] (setting [14]), 1.66 µM; in data set [3] (setting [13]), 0.776 µM. In addition, the IC50 stood at 0.257 µM in [4] (setting [15]); 0.347 µM in [4] (setting [14]); 0.123 µM in data set [4] (setting [13]); 0.191 µM in [5] (setting [15]); 1.07 µM in data set [5] (setting [14]); 0.646 µM in data set [5] (setting [13]). For the same compound, the IC50 in data set [6] (setting [14]) was determined as 0.199 µM; in [6] (setting [13]), 0.138 µM; in data set [7] (setting [15]) it was 0.724 µM; in [7] (setting [14]), 0.617 µM; in [7] (setting [13]), 0.997 µM; in data set [8] (setting [15]), 0.933 µM. For the same compound, the IC50 in [8] (setting [13]) came to 1.91 µM; in data set [10] (setting [15]), 0.485 µM; in data set [10] (setting [14]), 0.526 µM; in [11] (setting [15]), 0.218 µM; in [11] (setting [14]) it was 0.319 µM. For the same compound, the Kd in data set [9] stood at 304 ± 27.6 nM.
With `CN1C(=CC=C(C=CC2=[N+](C)c3ccccc3C2(C)C)c2ccc(C(C=CC3=[N+](C)c4ccccc4C3(C)C)=CC=C3N(C)c4ccccc4C3(C)C)cc2)C(C)(C)c2ccccc21` [compound 5, p-bis-pentamethinium salt 5], in [1] (bj-htert cells, Bis-PMS 5 (IC50 / µM), replicate 2), the CC50 at 48 h is 1.7 µM. Besides, the CC50 in data set [2] (setting [16]) was determined as 1.78 µM; in data set [2] (setting [17]), 0.427 µM; in data set [2] (setting [18]) it was 0.757 µM; in [3] (setting [18]) it was 1.62 µM. The IC50 in [4] (setting [16]) was 0.562 µM; in data set [4] (setting [17]), 0.631 µM; in data set [4] (setting [18]) it was 0.295 µM; in data set [5] (setting [17]), 0.396 µM; in data set [5] (setting [18]) it was 0.178 µM; in data set [6] (setting [16]), 2.69 µM. In addition, the IC50 in data set [6] (setting [17]) stood at 2.82 µM; in data set [7] (setting [16]), 0.832 µM; in [7] (setting [17]) it was 0.38 µM; in data set [7] (setting [18]) it was 0.891 µM; in data set [8] (setting [16]), 0.417 µM; in data set [8] (setting [18]), 0.183 µM. Further, the IC50 in data set [10] (setting [16]) is 0.501 µM; in data set [10] (setting [17]), 0.938 µM; in data set [11] (setting [16]), 0.9 µM; in data set [11] (setting [17]), 1.04 µM. Besides, in [9], the Kd was found to be 26.5 ± 2.5 nM.
For the compound tocilizumab, in data set [12], the Kd is 2.54 nM.
